The values that follow come from patent US9623031B2, “Compositions, methods and kits for treating cancer” (priority 2011, dated 2017).

Series [1] deals with FV-LSCs (M34^+Kit^+Sca1^+). Description: Apoptosis of FV-LSCs treated ex vivo (annexin V, flow cytometry). In kind it is cell-based, mouse. The note with it: 25 nM, 36 h, annexin V. (In general: Flow cytometry measures light scatter and fluorescence of single cells or particles in a stream.)
Experimental: On day 14 after infection, spleens were isolated and a single cell suspension of spleen cells was generated. The cells were filtered through a 70 μm sterile filter and flow-through cells were resuspended in RBC lysis buffer followed by centrifugation. Leukemia stem cells were isolated by FACS. Spleen cells were labeled with anti-Kit, Sca1 (BioLegend, San Diego, Calif.) and M34 antibodies. […] As indicated M34^+Kit^+Sca1^+ cells were cultured in Methocult media (Stem Cell Technologies Vancouver BC) M3334 supplemented with 200 ng/ml Sonic Hedgehog (Shh), 15 ng/ml bone morphogenetic protein-4 (BMP4) (both from R&D Systems Minneapolis, Minn.), and 50 ng/ml stem cell factor (SCF; Peprotech).
The cells were stained with annexin V-FITC and analyzed by flow cytometry. […] Means±s.e.m. *P<0.001 compared to vehicle (PBS). […] Inset: Effect of rosiglitazone on the apoptosis of LSC. Rosiglitazone (0.1-2.0 μM) was incubated with LSC in the culture media for 36 h as described earlier and the cells were subjected to annexin-V staining followed by flow cytometry. […] LSC were treated ex vivo with indicated concentrations of each compound for 36 h. Mean±s.e.m. shown *P<0.001.
In series [2] the test system is FV-LSCs transplanted into BALB/c-Stk^−/− mice.
Experimental: Transplant of FV-LSCs into BALB/c-Stk^−/− mice: FV-LSCs were generated as described above. 2.5×10^5 FV-LSCs were transplanted into BALB/c-Stk^−/− mice by retro-orbital injection. Six weeks after transplant the mice were treated with CyPGs or vehicle control as indicated in the text.
Treatment of Mice with PGs: Mice with FV-induced erythroleukemia or MIGR-BCR-ABL induced CML were treated on the indicated days with CyPGs. Mice were treated with a daily intraperitoneal injection of Δ^12-PGJ3 (0.01-0.1 mg/kg), 15d-PGJ2 (0.1 mg/kg), or 9,10-dihydro-15d-PGJ2 (0.1 mg/kg) for 7 days. All three compounds were formulated with hydroxypropyl-β-cyclodextrin (30% w/v; Sigma; vehicle control).
Stk^−/− mice are resistant to Friend virus infection so the leukemia developed by the transplanted mice is result of the transplanted LSCs and not FV infection. […] LSCs sorted from the spleens of FV-infected mice were transplanted into Stk^−/− mice (on a Balb/c background). After 6 weeks such mice were treated daily for 1 week with vehicle (hydroxypropyl-β-cyclodextrin), 15d-PGJ2 (0.05 mg/kg), or 9,10-dihydro-15d-PGJ2 (0.05 mg/kg) by intraperitoneal injection. The mice were sacrificed 51 days post LSC transplantation for analysis. An analysis of spleens of mice comparing splenomegaly in vehicle, 15d-PGJ2, or 9,10-dihydro-15d-PGJ2 treated transplanted mice was performed. Spleen weight compared to control (untransplanted mice) after treatment and WBC counts in the peripheral blood of the mice after treatment were examined, and a flow cytometric analysis of the spleen of untransplanted and LSC transplanted mice after treatment was performed. All data were mean±s.e.m. *p<0.05 compared to control or 9,10-dihydro-15d-PGJ2 treated groups. N=5 per group.
Series [3] deals with BCR-ABL^+LSC (Kit^+Sca1^+Lin^−GFP^+). Description: Apoptosis of BCR-ABL+ LSCs treated ex vivo (annexin V, flow cytometry). It is filed as cell-based, mouse. The method, then:
Apoptosis. Apoptosis of LSCs was performed using annexin V as described below in Supplementary Information and Methods.
Apoptosis. The LSCs were diluted in DMEM, resuspended using a 16-gauge needle, and collected by centrifugation. 1×10^5 cells were resuspended in 200 μl of binding buffer (0.1 M HEPES with 1.4 M NaCl, 25 mM CaCl2, pH 7.4). Annexin V FITC (BD Biosciences) was incubated with cells for 15 min on ice followed by flow cytometric analysis.
The ability of CyPGs derived from arachidonic acid (2 series PGs) to induce apoptosis was tested in cultures of LSCs from FV infected mice and in the murine CML model. […] 15d-PGJ2 is known as a PPAPγ agonist. […] In FIG. 7C Δ^12-PGJ3, 15d-PGJ2 or 9,10-dihydro-15d-PGJ2 are tested for their ability to induce apoptosis in a murine CML model. […] The cells were stained with annexin V-FITC and analyzed by flow cytometry. Representative of N=4. […] Inset: Effect of rosiglitazone on the apoptosis of LSC. Rosiglitazone (0.1-2.0 μM) was incubated with LSC in the culture media for 36 h as described earlier and the cells were subjected to annexin-V staining followed by flow cytometry. […] LSC were treated ex vivo with indicated concentrations of each compound for 36 h.
(§1) Following 36 h of incubation, apoptotic cells were quantified by annexin V staining. […] In a related study to address if Δ^12-PGJ3 treatment would cause any degranulation of granulocytes, a rat basophilic cell line ([…]) was treated with 100 nM Δ^12-PGJ3 and the degranulation was followed by quantitating the release of histamine and a second marker of degranulation, hexoseaminidase.
In this experiment, 500,000 BCR-ABL+ LSCs were plated in a 24-well plate followed and were treated with 25 nM PGD2Me or 100 nM ZK118182 (both are agonists of DP) for 24 h. GFP^+ cells were analyzed by flow cytometry. These agonists were purchased from Cayman Chemicals, MI.

The test system of series [4] is p53. Put plainly: p53 expression in BCR-ABL+ LSCs treated ex vivo. In kind it is cell-based, mouse.
The subject of series [5] is p53. Description: p53 expression in FV-LSCs treated ex vivo (RT-PCR, nuclear extracts). It is filed as cell-based, mouse.
Series [6] concerns Friend virus (FV)-induced erythroleukemia. Put plainly: FV-induced erythroleukemia in FV-infected mice, intraperitoneal treatment. It is filed as in vivo, mouse. From the text: FV-induced erythroleukemia and production of FV leukemia stem cells (FV-LSCs): BALB/c mice were infected with FV as previously described (Subramanian A et al., J Virol. 2008; 82:382-393; Harandi O F et al., J Clin Invest. 2010; 120:4507-4519). On day 14 after infection, spleens were isolated and a single cell suspension of spleen cells was generated. The cells were filtered through a 70 μm sterile filter and flow-through cells were resuspended in RBC lysis buffer followed by centrifugation. Leukemia stem cells were isolated by FACS. Spleen cells were labeled with anti-Kit, Sca1 (BioLegend, San Diego, Calif.) and M34 antibodies. M34 is a monoclonal antibody that recognizes the envelope protein of SFFV (Chesebro B et al., Virology. 1981; 112:131-144) and was used as previously described (Subramanian A et al., J Virol. 2008; 82:382-393). As indicated M34^+Kit^+Sca1^+ cells were cultured in Methocult media (Stem Cell Technologies Vancouver BC) M3334 supplemented with 200 ng/ml Sonic Hedgehog (Shh), 15 ng/ml bone morphogenetic protein-4 (BMP4) (both from R&D Systems Minneapolis, Minn.), and 50 ng/ml stem cell factor (SCF; Peprotech). For CFU-FV assays, cells were plated in methylcellulose media containing fetal calf serum, but lacking added growth factors as previously described (Mager D L et al., Proc Natl Acad Sci USA. 1981; 78:1703-1707).
Complete blood counts of mice treated with Δ^12-PGJ3 (0.05 mg/kg) were examined. There is no difference in treated mice and untransplanted control mice in terms of white blood cell counts, red blood cell counts or platelet counts. Changes in hematological parameters in FV-infected mice upon treatment with CyPGs were examined. FV-infected Balb/c mice were treated with Δ^12-PGJ3 (0.05 mg/kg) intraperitoneally for 7 d following which the mice were sacrificed and hematological parameters were analyzed on an Advia blood analyzer. FV-infected Δ^12-PGJ3 treated mice were compared to infected vehicle controls. N=5 per group, all data are means±s.e.m. *P<0.05. 3% w/v hydroxypropyl-3-cyclodextrin was used as a vehicle in in vivo experiments. Spleen sizes of FV-infected mice that were treated with either vehicle, 9,10-dihydro-15d-PGJ2 (0.05 mg/kg), or 15d-PGJ2 (0.05 mg/kg) were examined; N=3 pre group. Hematological parameters of Balb/c uninfected, infected, and 15d-PGJ2 treated mice were examined. N=5 per group. All data were means±s.e.m. *P<0.05.
FV-LSC were targeted by 15d-PGJ2 in the spleen of FV-infected mice. FV-infected mice were treated with 15d-PGJ2 or 9,10-dihydro-15d-PGJ2 at 0.05 mg/kg for 7 d. The splenic LSC (M34^+Sca1^+Kit^+) cells were analyzed by flow cytometry on day 14 post infection. […] Uninfected and infected vehicle controls were used for comparison. N=3; *P<0.05. […] The colonies were counted 10-14 days after plating. N=3 mice per group, *p<0.05.

The subject of series [7] is Human unfractionated bone marrow cells. Put plainly: Colony formation of normal human bone marrow cells in methylcellulose. The note with it: methylcellulose with multiple growth factors, 12 days.
Experimental: Human unfractionated bone marrow cells (5×10^5 per well) were plated in methylcellulose complete media containing IL-3, GM-CSF, G-CSF, SCF and Epo supplemented with the indicated concentrations of drugs. Total colonies were counted after 12 days.
Series [8] relates to normal HSCs (MSCV-GFP^+HSC). Description: Effect on normal HSCs (MSCV-GFP+ HSC) treated ex vivo. The note with it: antagonists/inhibitor 10 nM; Δ^12-PGJ3 25 nM; 36 h.
The subject of series [9] is primary human AML cells; LSCs (CD34+CD38−CD123+). Put plainly: Apoptosis of primary human AML cells and AML LSCs (annexin V). In kind it is cell-based. The note with it: CAY10471 10 nM pretreatment, then Δ^12-PGJ3 100 nM. How it is done:
In this experiment, 110,000/well primary AML cells were cultured in above specified media for 6 and 12 hrs. Cells were collected and washed once with ice cold PBS. The cells were resuspended in 200 ul 1× Apoptosis buffer with annexin-V PE to all tubes. The cells were washed in PBS and resuspended in 600 ul PBS and transfer into flow tubes and analyzed for apoptosis (Annexin V+ cells) on FC-500. […] In this experiment, 110,000/well AML cells were cultured in earlier mentioned media for 6 and 12 hrs. Cells were collected and washed once in PBS and resuspended in 200 ul PBS and blocked with FC receptor antibody 10 mins RT. The following antibodies were added: CD38, CD123, CD34, CD117 (BD bioscience) for 1 hr on ice. Cells were washed in PBS once and resuspended in 200 ul of apoptotic buffer, and annexin V was added and incubated for 15 mins. Apoptotic cells (Annexin V+ cells) were counted by flow cytometry. […] Cells were collected and washed once in PBS and resuspended in 200 ul PBS and blocked with FC receptor antibody 10 mins RT. The following antibodies were added: CD38, CD123, CD34 (BD bioscience) for 1 hr on ice. Cells were washed in PBS once and resuspended in 200 ul of apoptotic buffer, and annexin V was added and incubated for 15 mins. Apoptotic cells (Annexin V+ cells) were counted by flow cytometry.
Referring to the results shown in FIG. 16, these experiments were performed with primary AML stem cells isolated from a patient. […] In an identical experiment, the cells were also treated with a synthetic DP agonist, ZK118182 (100 nM). Apoptosis of cells (by annexin V staining) was measured using flow cytometry.

The subject of series [10] is rat basophilic cell line (RBL-23). Put plainly: Degranulation of basophilic cells (histamine and hexoseaminidase release). The following applies: Δ^12-PGJ3 100 nM. The method, then: as §1

Entries after “also recorded” stand apart in the source; their conditions may differ.

Consider `CCCCC/C=C\C=C1\C(=O)CC[C@@H]1C/C=C\CCCC(=O)O` [9,10-dihydro-15d-PGJ2], for which the “apoptosis of FV-LSCs” value in series [1] is on record as “fail to induce apoptosis; also recorded: no apoptosis”. The “hematocrit, WBC counts and reticulocyte counts” value in series [2] (FV-induced leukemia, FIG. 3C) was “had no effect on any parameter tested”. Besides, the “LSCs (M34+Sca1+Kit+) in the spleen” value in series [2] (flow cytometry after 1 week i.p. treatment) is listed as “did not have any effect on their viability”. Moreover, in series [2] (Δ^12-PGJ3 0.025 and 0.05 mg/kg, comparators 0.05 mg/kg, i.p. 1 week), the splenomegaly entry is given as “nor alleviated splenomegaly”. The “apoptosis of Sca1+GFP+Kit+ BCR-ABL+LSC from spleen” value in [3] (25-1000 nM, 36 h) is “had no effect; also recorded: ineffective even at high concentrations up to 1 μM”. In addition, the “p53 mRNA” value in [4] (25 nM ex vivo) is on record as “ineffective”. Further, the “p53 expression at transcript level” value in series [5] (10 or 25 nM, 12 h) was “ineffective”. The “LSCs (Sca1+Kit+M34+) in the spleen” value in [6] (0.05 mg/kg i.p. 7 d, flow cytometry day 14 post infection) is on record as “ineffective”. For the same compound, the “splenomegaly, comparator CyPGs” value in series [6] (i.p. 7 days) is “did not have any effect on the amelioration of splenomegaly”.

Take `CC(C)OC(=O)COCC=CCC1C(Cl)CC(O)C1C=CC(O)C1CCCCC1` (stereo not drawn) [ZK118182, [[4-[5R-chloro-2Z-[3R-cyclohexyl-3 S-hydroxy-1R-propenyl]-3 S-hydroxycyclopentyl]-2R-butenyl]oxy]-acetic acid, isopropyl ester]: in [7], the “total colonies of human bone marrow cells” value is “had no effect”. The “apoptosis of BCR-ABL+ LSCs by synthetic DP agonists (GFP+ cells)” value in [3] (25 nM PGD2Me or 100 nM ZK118182, 24 h) is reported as “can induce apoptosis of LSCs”.

As for `CN(C1CCc2c(c3ccccc3n2CC(=O)O)C1)S(=O)(=O)c1ccc(F)cc1` (stereo not shown) [CAY10471, reference compound], in [8], the “viability of MSCV-HSC control cells” value is “not affected”. Also, the “inhibition of Δ^12-PGJ3-induced apoptosis by DP antagonist” value in [3] (antagonist 10 nM, 2 h pretreatment, then 25 nM Δ^12-PGJ3, 36 h) was “inhibited”. The “block of Δ^12-PGJ3-induced apoptosis of LSCs” value in [9] was “completely blocked the apoptosis”.

For `O=c1cc(-c2cccc3c2Sc2ccccc2S3)oc(N2CCOCC2)c1` [MTPO, 2-Morpholin-4-yl-6-thianthren-1-yl-pyran-4-one], the “viability of MSCV-HSC control cells” value in [8] was “not affected”. Moreover, the “block of Δ^12-PGJ3-induced apoptosis by ATM inhibitor” value in series [3] (pretreatment, then 25 nM Δ^12-PGJ3) is listed as “blocked the effect of Δ^12-PGJ3 on apoptosis”. The “block of Δ^12-PGJ3-induced p53 expression by ATM inhibitor” value in series [4] (pretreatment) is “blocked”. In series [5] (preincubation, then Δ^12-PGJ3), the “block of Δ^12-PGJ3-dependent p53 expression by ATM inhibitors” value is recorded as “blocked the CyPG-dependent expression of p53”.

On to `C[C@H](CCC(=O)O)C[C@H](C)C[C@H](C)C(=O)/C=C(\O)[C@H](C)C[C@H](C)C/C=C/[C@@H](C)[C@@H](O)[C@@H](C)[C@@H](O)C[C@@H]1CC[C@@](C)([C@H]2CC[C@@](C)([C@@H](C)O)O2)O1` [ionomycin], for which the “degranulation (release of histamine and hexoseaminidase)” value in series [10] is “caused extensive production of histamine and hexoseaminidase”.
